# Structures can show the parent of a compound that is named as a salt. Where two headings read alike, the source gives them in different places.
# Key:
# [1] = tested on: endometrium of normal women; details: morphometric analysis; cited from earlier work
# [2] = tested on: patients who failed to ovulate or ovulated with endometrial thickness <5 mm in response to CC
# Description: HCG 10,000 IU was given to trigger ovulation. CC was given in a dose of 50-100 mg on days 3-7 or 5-9.
# anovulatory women = details: cited from earlier work
# [3] = tested on: postmenopausal breast cancer patients; details: lethargy, rashes, nausea and fever; cited from earlier work
# aromatase [4] = target: T1, aromatase (Homo sapiens, UniProt P11511); details: cited from earlier work
# T1 sequence (P11511 1-503): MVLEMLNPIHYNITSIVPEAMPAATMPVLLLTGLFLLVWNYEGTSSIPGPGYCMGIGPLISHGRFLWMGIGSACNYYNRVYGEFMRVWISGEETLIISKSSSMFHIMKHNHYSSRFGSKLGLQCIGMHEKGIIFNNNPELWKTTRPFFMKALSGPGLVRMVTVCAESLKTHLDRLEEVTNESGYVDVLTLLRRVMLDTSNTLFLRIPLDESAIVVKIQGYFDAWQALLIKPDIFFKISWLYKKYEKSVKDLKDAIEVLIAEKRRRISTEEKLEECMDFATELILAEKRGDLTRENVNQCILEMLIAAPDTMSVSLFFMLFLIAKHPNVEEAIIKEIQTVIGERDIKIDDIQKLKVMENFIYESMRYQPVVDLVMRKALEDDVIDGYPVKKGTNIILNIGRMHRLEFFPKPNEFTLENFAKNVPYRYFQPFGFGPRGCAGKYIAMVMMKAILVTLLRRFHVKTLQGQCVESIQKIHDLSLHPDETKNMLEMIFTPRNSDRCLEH
# [5] = in vivo; cited from earlier work
# [6] = tested on: patients with PCOS with inadequate response to CC; details: cited from earlier work
# [7] = tested on: ovulatory women with unexplained infertility and anovulatory women with PCOS; details: cited from earlier work
# mice = details: mouse, in vivo; cited from earlier work
# [8] = tested on: patients who failed to ovulate or ovulated with endometrial thickness <5 mm in response to CC; experiment: Example 1: letrozole for ovulation induction after CC failure; type: in vivo, human
# Excerpt: HCG 10,000 IU was given to all except one patient to trigger ovulation. Ten patients completed 12 cycles (one patient completed three cycles).
# [9] = tested on: women with PCOS; ovulatory women; details: cited from earlier work
# aromatase [10] = target: T2, aromatase (Rattus norvegicus, UniProt P22443); details: given orally; cited from earlier work
# T2 sequence (P22443 1-508): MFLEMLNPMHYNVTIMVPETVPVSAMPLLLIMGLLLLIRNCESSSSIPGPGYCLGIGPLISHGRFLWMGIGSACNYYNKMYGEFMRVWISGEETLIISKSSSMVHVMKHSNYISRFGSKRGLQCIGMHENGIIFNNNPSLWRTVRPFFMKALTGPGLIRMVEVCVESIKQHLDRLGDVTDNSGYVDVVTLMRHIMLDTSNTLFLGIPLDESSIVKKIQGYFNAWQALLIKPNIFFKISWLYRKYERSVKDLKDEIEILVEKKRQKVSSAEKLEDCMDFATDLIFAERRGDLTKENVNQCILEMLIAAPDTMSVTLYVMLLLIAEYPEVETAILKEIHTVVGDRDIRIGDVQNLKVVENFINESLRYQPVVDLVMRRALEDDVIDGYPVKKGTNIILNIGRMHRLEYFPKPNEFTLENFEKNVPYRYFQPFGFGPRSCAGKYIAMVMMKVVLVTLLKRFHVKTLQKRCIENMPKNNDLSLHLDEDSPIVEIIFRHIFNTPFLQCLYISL
# rats = details: rat, in vivo; cited from earlier work
# mature female rats = details: cited from earlier work
# [11] = oral, healthy postmenopausal women; cited from earlier work
structure (smiles),measurement,setting,value
"CCN(CC)CCOc1ccc(C(=C(Cl)c2ccccc2)c2ccccc2)cc1 [CC, clomiphene citrate]","effect on the endometrium (glandular density, vacuolated cells)",[1],deleterious effect on the endometrium
same,Day of hCG administration,[2]; mean,12.6
same,Endometrial Thickness,[2]; mean,0.5 Cm.
same,Estradiol on day of hCG administration,[2]; mean,2145 pmol/L
same,Estradiol per mature follicle,[2]; mean,1278 pmol/L
same,Follicles >1.5 Cm on day of hCG administration,[2]; mean,1.9
same,LH on day of hCG administration,[2]; mean,16 IU/L
same,Number of Days from last letrozole tablet to HCG day,[2]; mean,4.4
same,Day of hCG administration,[2]; median,12
same,Endometrial Thickness,[2]; median,0.4 Cm.
same,Estradiol on day of hCG administration,[2]; median,1668 pmol/L
same,Estradiol per mature follicle,[2]; median,1486 pmol/L
same,Follicles >1.5 Cm on day of hCG administration,[2]; median,2
same,LH on day of hCG administration,[2]; median,8 IU/L
same,Number of Days from last letrozole tablet to HCG day,[2]; median,4
same,Day of hCG administration,[2]; range,11-16
same,Endometrial Thickness,[2]; range,0.4-0.8 Cm.
same,Estradiol on day of hCG administration,[2]; range,362 to 5210 pmol/L
same,Estradiol per mature follicle,[2]; range,177 to 2404 pmol/L
same,Follicles >1.5 Cm on day of hCG administration,[2]; range,1-5
same,LH on day of hCG administration,[2]; range,3-66 IU/L
same,Number of Days from last letrozole tablet to HCG day,[2]; range,2-7
same,anovulatory women resistant to CC who fail to ovulate,anovulatory women; doses up to 150 mg daily,20% to 25%
same,women who do not ovulate with CC,anovulatory women; in vivo,20 to 25%
CCC1(c2ccc(N)cc2)CCC(=O)NC1=O (centres unmarked) [aminoglutethimide],patients stopping treatment because of side effects,[3],8-15%
CC(C)(C#N)c1cc(Cn2cncn2)cc(C(C)(C)C#N)c1 [anastrozole],in vivo inhibition of aromatase,aromatase [4],97%
N#Cc1ccc(C(c2ccc(C#N)cc2)n2cncn2)cc1 [letrozole],doses well tolerated,[5],up to 30 mg
same,"ovulation, letrozole treated cycles","[6]; 7 of the 10 cycles, PCOS",70%
same,mean number of mature follicles,"[6]; 7 ovulatory cycles, mean",2.6
same,"number of mature follicles, range","[6]; 7 ovulatory cycles, range",1 to 4 follicles
same,mean estradiol per follicle,[6]; mean,378 pmol/L
same,chemical pregnancy,[6]; of 10 PCOS patients,one
same,clinical pregnancy,[6]; of 10 PCOS patients,2 patients
same,FSH dose required for adequate ovarian super ovulation,[7]; letrozole in conjunction with FSH,significantly lower FSH dose
same,ovarian response to FSH stimulation,[7]; low responders during ovarian stimulation,improvement in ovarian response to FSH stimulation
same,lethal dose,mice,approximately 2000 mg/kg
same,"pregnancy, patients",[8]; 4 out of 10 patients,40%
same,"ovulation, cycles","[8]; 9 of 12 cycles, 2.5 to 5 mg/day",75%
same,Endometrial Thickness,[8]; mean,0.8 Cm.
same,Estradiol on day of HCG admin.,[8]; mean,1036 pmol
same,Endometrial Thickness,[8]; median,0.8 Cm.
same,Estradiol on day of HCG admin.,[8]; median,988 pmol
same,Endometrial Thickness,[8]; range,0.6-0.9 Cm.
same,Follicles >1.5 Cm On day of HCG admin.,[8]; range,1-3
same,"pregnancy, patients",[2]; 5 out of 15 patients,33%
same,"ovulation, cycles",[2]; 13 of 17 letrozole cycles,77%
same,Endometrial Thickness,[2]; mean,0.8 Cm.
same,Estradiol per mature follicle,[2]; mean,392 pmol/L
same,Number of Days from last letrozole tablet to HCG day,[2]; mean,6.7
same,Endometrial Thickness,[2]; median,0.8 Cm.
same,Estradiol per mature follicle,[2]; median,289 pmol/L
same,Number of Days from last letrozole tablet to HCG day,[2]; median,7
same,Endometrial Thickness,[2]; range,0.6-1.1 Cm.
same,Estradiol per mature follicle,[2]; range,107 to 837 pmol/L
same,Number of Days from last letrozole tablet to HCG day,[2]; range,2-9
same,"pregnancy, patients","[9]; PCOS group, 3 patients",25%
same,"ovulation, cycles","[9]; PCOS group, 9 of 12 cycles",75%
same,"pregnancy, patients","[9]; ovulatory group, one patient",10%
same,mean endometrial thickness,[9]; ovulatory group,0.8 cm
same,mean number of mature follicles,[9]; ovulatory group,2.3
same,ED50 in vivo,aromatase [10],1 to 3 µg/kg
same,lethal dose,rats,approximately 2000 mg/kg
same,FSH and LH,mature female rats,increased FSH and LH
same,increase in ovarian weight,mature female rats,~30%
same,half-life,[11],approximately 45 hours

# From patent publication US7820706B2, “Multiple dose aromatase inhibitor for treating infertility” (Ares Trading S.A., priority 2001, dated 2010)
